Measurements: ChEMBL document CHEMBL5241058, “Pyrazole-based analogs as potential antibacterial agents against methicillin-resistance staphylococcus aureus (MRSA) and its SAR elucidation” (Eur J Med Chem, 2021)
In brackets after ≈: the same amount, converted by molar mass. Several values for one entry are separate records, joined by “and”; a condition that tells them apart may be missing. Equal values may be shown once.

Assays:
Staphylococcus aureus [1] = experiment: Antimicrobial activity against Staphylococcus aureus LysRs assessed as bacterial growth inhibition by microdilution method; assay type: functional, organism-based
Staphylococcus aureus [2] = experiment: Antimicrobial activity against Staphylococcus aureus 209 assessed as bacterial growth inhibition; assay type: functional
Staphylococcus aureus [3] = experiment: Antimicrobial activity against Methicillin sensitive Staphylococcus aureus assessed as bacterial growth inhibition incubated for 18 hrs; assay type: functional
Staphylococcus aureus [4] = experiment: Antimicrobial activity against Methicillin-resistant Staphylococcus aureus assessed as bacterial growth inhibition; assay type: functional
Escherichia coli = experiment: Antimicrobial activity against Escherichia coli ATCC 8739 assessed as bacterial growth inhibition incubated for 18 hrs by microdilution method; assay type: functional
[5] = system: Salmonella enterica subsp. enterica; experiment: Antimicrobial activity against Salmonella typhimurium […] assessed as bacterial growth inhibition incubated for 18 hrs by microdilution method; assay type: functional
Klebsiella pneumoniae = experiment: Antimicrobial activity against Klebsiella pneumoniae ATCC 314588 assessed as bacterial growth inhibition incubated for 18 hrs by microdilution method; assay type: functional
Pseudomonas aeruginosa = experiment: Antimicrobial activity against Pseudomonas aeruginosa ATCC 27853 assessed as bacterial growth inhibition incubated for 18 hrs by microdilution method; assay type: functional
Staphylococcus aureus [6] = experiment: Antimicrobial activity against Methicillin-resistant Staphylococcus aureus ATCC BAA 1683 assessed as bacterial growth inhibition incubated for 18 hrs by microdilution method; assay type: functional
Staphylococcus aureus [7] = experiment: Antimicrobial activity against Methicillin-resistant Staphylococcus aureus assessed as bacterial growth inhibition by microtiter dilution plate method; assay type: functional
Staphylococcus aureus [8] = experiment: Antimicrobial activity against Methicillin-resistant Staphylococcus aureus assessed as bacterial growth inhibition by agar well diffusion method; assay type: functional
Staphylococcus aureus [9] = experiment: Antimicrobial activity against Methicillin-sensitive Staphylococcus aureus ATCC 25923 assessed as bacterial growth inhibition; assay type: functional
Staphylococcus aureus [10] = experiment: Antimicrobial activity against Methicillin-resistant Staphylococcus aureus BAA-2312 assessed as bacterial growth inhibition; assay type: functional
Staphylococcus aureus [11] = experiment: Antimicrobial activity against Methicillin-resistant Staphylococcus aureus ATCC 700699 assessed as bacterial growth inhibition; assay type: functional
Staphylococcus aureus [12] = experiment: Antimicrobial activity against Methicillin-resistant Staphylococcus aureus ATCC 33591 assessed as bacterial growth inhibition; assay type: functional
Staphylococcus aureus [13] = experiment: Antimicrobial activity against Methicillin-resistant Staphylococcus aureus ATCC 33592 assessed as bacterial growth inhibition; assay type: functional
Staphylococcus aureus [14] = experiment: Antimicrobial activity against Methicillin-resistant Staphylococcus aureus BFSA25 assessed as bacterial growth inhibition by microdilution method; assay type: functional; conditions: BFA25
Staphylococcus aureus [15] = experiment: Antimicrobial activity against Methicillin-resistant Staphylococcus aureus BFSA30 assessed as bacterial growth inhibition by microdilution method; assay type: functional; conditions: BFA30
Staphylococcus aureus [16] = experiment: Antimicrobial activity against Methicillin-resistant Staphylococcus aureus BFSA31 assessed as bacterial growth inhibition by microdilution method; assay type: functional; conditions: BFA31
Staphylococcus aureus [17] = experiment: Antimicrobial activity against Methicillin-resistant Staphylococcus aureus BFSA32 assessed as bacterial growth inhibition by microdilution method; assay type: functional; conditions: BFA32
Staphylococcus aureus [18] = experiment: Antimicrobial activity against Methicillin-resistant Staphylococcus aureus BFSA33 assessed as bacterial growth inhibition by microdilution method; assay type: functional; conditions: BFA33
Staphylococcus aureus [19] = experiment: Antimicrobial activity against Methicillin-resistant Staphylococcus aureus BFSA48 assessed as bacterial growth inhibition by microdilution method; assay type: functional; conditions: BFA48
Staphylococcus aureus [20] = experiment: Antimicrobial activity against Methicillin-resistant Staphylococcus aureus ATCC 3167 assessed as bacterial growth inhibition; assay type: functional
Staphylococcus aureus [21] = experiment: Antimicrobial activity against Methicillin-resistant Staphylococcus aureus assessed as bacterial growth inhibition incubated for 24 hrs by microdilution method; assay type: functional
Staphylococcus aureus [22] = experiment: Antimicrobial activity against Methicillin-resistant Staphylococcus aureus assessed as bacterial growth inhibition incubated for 24 hrs by agar disc diffusion method; assay type: functional
Staphylococcus aureus [23] = experiment: Antimicrobial activity against Methicillin-resistant Staphylococcus aureus assessed as bacterial growth inhibition incubated for 24 hrs; assay type: functional
Staphylococcus aureus [24] = experiment: Antimicrobial activity against Methicillin-resistant Staphylococcus aureus ATCC 43300 assessed as bacterial growth inhibition; assay type: functional
Staphylococcus aureus [25] = experiment: Antimicrobial activity against Methicillin-resistant Staphylococcus aureus ATCC 700699 assessed as bacterial growth inhibition incubated for 20 to 24 hrs by microdilution method; assay type: functional; conditions: time 20-24 hrs
Staphylococcus aureus [26] = experiment: Antimicrobial activity against Methicillin-resistant Staphylococcus aureus ATCC 33591 assessed as bacterial growth inhibition incubated for 20 to 24 hrs by microdilution method; assay type: functional; conditions: time 20-24 hrs
Staphylococcus aureus [27] = experiment: Antimicrobial activity against Methicillin-resistant Staphylococcus aureus ATCC 33592 assessed as bacterial growth inhibition incubated for 20 to 24 hrs by microdilution method; assay type: functional; conditions: time 20-24 hrs
Staphylococcus aureus [28] = experiment: Antimicrobial activity against Methicillin-sensitive Staphylococcus aureus ATCC 33591 assessed as bacterial growth inhibition by microbroth serial dilution method; assay type: functional
Staphylococcus aureus [29] = experiment: Antimicrobial activity against Methicillin-sensitive Staphylococcus aureus ATCC 43300 assessed as bacterial growth inhibition by microbroth serial dilution method; assay type: functional
Staphylococcus aureus [30] = experiment: Antimicrobial activity against Methicillin-sensitive Staphylococcus aureus ATCC 33591 assessed as bacterial growth inhibition incubated for 24 hrs; assay type: functional
Staphylococcus aureus [31] = experiment: Antimicrobial activity against Methicillin-sensitive Staphylococcus aureus ATCC 43300 assessed as bacterial growth inhibition incubated for 24 hrs; assay type: functional; conditions: ATCC43300
Staphylococcus aureus [32] = experiment: Antimicrobial activity against vancomycin intermediate-resistant Staphylococcus aureus assessed as bacterial growth inhibition incubated for 24 hrs by microdilution method; assay type: functional
Staphylococcus aureus [33] = experiment: Antimicrobial activity against Methicillin-resistant Staphylococcus aureus MW2 assessed as bacterial growth inhibition incubated for 18 hrs by microdilution method; assay type: functional
Staphylococcus aureus [34] = experiment: Antimicrobial activity against Methicillin-resistant Staphylococcus aureus CCARM 3506 assessed as bacterial growth inhibition incubated for 24 hrs by ELISA assay; assay type: functional
[35] = target: T1, Dihydrofolate reductase (Homo sapiens) (UniProt P00374); experiment: Inhibition of human DHFR using TMB as substrate incubated for 1.5 hrs by ELISA assay relative to control; conditions: concentration not given here
T1 sequence (whole entry): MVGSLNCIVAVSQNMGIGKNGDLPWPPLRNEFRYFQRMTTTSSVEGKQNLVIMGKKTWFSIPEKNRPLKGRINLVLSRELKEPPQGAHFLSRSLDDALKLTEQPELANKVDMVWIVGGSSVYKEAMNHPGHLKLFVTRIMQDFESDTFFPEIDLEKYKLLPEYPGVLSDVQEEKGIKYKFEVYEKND

Staphylococcus aureus [36] = experiment: Antimicrobial activity against Methicillin-resistant Staphylococcus aureus assessed as bacterial growth inhibition by disc diffusion method; assay type: functional
Staphylococcus aureus [37] = experiment: Antimicrobial activity against Methicillin-resistant Staphylococcus aureus ATCC 33592 assessed as bacterial growth inhibition incubated for 20 to 24 hrs by microdilution assay; assay type: functional; conditions: time 20-24 hrs

CCc1c2[nH]c(=O)[nH]c(=O)c2nn1CC1CCC1
IC50 (Staphylococcus aureus [1]): 21.7 µM

COc1nnc2nn(C)cnc1-2
MIC (Staphylococcus aureus [2]): 50 µg/mL (≈ 303 µM)

C[C@H]1COc2c(N3CCN(C)CC3)c(F)cc3c(=O)c(C(=O)O)cn1c23.C[C@H]1COc2c(N3CCN(C)CC3)c(F)cc3c(=O)c(C(=O)O)cn1c23.O [LEVOFLOXACIN]
MIC (Staphylococcus aureus [3]): 0.125 µg/mL

COc1[nH]nc2nncnc12
MIC (Staphylococcus aureus [2]): 200 µg/mL (≈ 1320 µM)

O=C(O)c1cn(C2CC2)c2cc(N3CCNCC3)c(F)cc2c1=O [CIPROFLOXACIN]
MBC (Staphylococcus aureus [4]): 625 µg/mL (≈ 1890 µM)
MIC (Escherichia coli): > 1.8 µg/mL
MIC [5]: > 1.8 µg/mL
MIC (Klebsiella pneumoniae): > 1.8 µg/mL
MIC (Pseudomonas aeruginosa): > 1.8 µg/mL
MIC (Staphylococcus aureus [6]): 1.84 µg/mL (≈ 5.55 µM)

c1ccc(-c2cnn3c4c(cnc23)CCCCCC4)cc1
MIC (Staphylococcus aureus [7]): 9 µg/mL
inhibition zone (IZ) (Staphylococcus aureus [8]): 50 mm

O=C(O)c1ccc(-n2cc(/C=N\N(c3ccccc3)c3ccccc3)c(-c3cc4cc(F)ccc4oc3=O)n2)cc1
MIC (Staphylococcus aureus [9]): 3.12 µg/mL (≈ 5.74 µM)
MIC (Staphylococcus aureus [10]): 3.12 µg/mL (≈ 5.74 µM)
MIC (Staphylococcus aureus [11]): 3.12 µg/mL (≈ 5.74 µM)
MIC (Staphylococcus aureus [12]): 3.12 µg/mL (≈ 5.74 µM)
MIC (Staphylococcus aureus [13]): 3.12 µg/mL (≈ 5.74 µM)

Cc1onc(-c2ccccc2)c1C(=O)N[C@@H]1C(=O)N2[C@@H]1SC(C)(C)[C@@H]2C(=O)O [OXACILLIN]
MIC (Staphylococcus aureus [14]): > 32 µg/mL
MIC (Staphylococcus aureus [15]): > 32 µg/mL
MIC (Staphylococcus aureus [16]): > 32 µg/mL
MIC (Staphylococcus aureus [17]): > 32 µg/mL
MIC (Staphylococcus aureus [18]): > 32 µg/mL
MIC (Staphylococcus aureus [19]): > 32 µg/mL
MIC (Staphylococcus aureus [20]): 64 µM (≈ 25.7 µg/mL)

CCOC(=O)c1nn(-c2ccccc2)cc1C(=O)c1ccc(S(=O)(=O)c2ccccc2)cc1
MIC (Staphylococcus aureus [21]): 25 µg/mL (≈ 54.3 µM)
inhibition zone (IZ) (Staphylococcus aureus [22]): 14 mm

Cc1nn(-c2ccccc2)c(Cl)c1/C=C/c1ccc([N+](=O)[O-])cc1[N+](=O)[O-]
MIC (Staphylococcus aureus [23]): 25 µg/mL (≈ 65 µM)

CC(C)(C)c1cc(NC(=O)c2cccc(F)c2)n(-c2ccc(Cl)cc2)n1
MIC (Staphylococcus aureus [24]): 3.12 µg/mL (≈ 8.39 µM)

O=C(O)c1ccc(-n2cc(/C=N/Nc3ccc([N+](=O)[O-])cc3)c(-c3cccc(F)c3)n2)cc1
MIC (Staphylococcus aureus [25]): 0.78 µg/mL (≈ 1.75 µM)

O=C(O)c1ccc(-n2cc(/C=N/Nc3ccc(Cl)cc3Cl)c(-c3cccc(F)c3)n2)cc1
MIC (Staphylococcus aureus [26]): 0.39 µg/mL (≈ 0.831 µM)

CC(=O)c1c(N2Cc3nn(C)c(N)c3C2)c(F)cc2c(=O)c(C(=O)O)cn(C3CC3)c12
MIC (Staphylococcus aureus [3]): 0.125 µg/mL (≈ 0.294 µM)

CCCSC(=S)c1c(C)nn(-c2ccccc2)c1O
MIC (Staphylococcus aureus [14]): 4 µg/mL
MIC (Staphylococcus aureus [15]): 4 µg/mL
MIC (Staphylococcus aureus [16]): 4 µg/mL
MIC (Staphylococcus aureus [17]): 4 µg/mL
MIC (Staphylococcus aureus [18]): 4 µg/mL
MIC (Staphylococcus aureus [19]): 4 µg/mL

COc1ccc(-n2nc(C(C)(C)C)cc2NC(=O)c2cccc(Cl)c2)cc1
MIC (Staphylococcus aureus [24]): 3.12 µg/mL (≈ 8.13 µM)

O=C(O)c1ccc(-n2cc(/C=N/Nc3cccc(Cl)c3F)c(-c3cccc(F)c3)n2)cc1
MIC (Staphylococcus aureus [27]): 0.78 µg/mL (≈ 1.72 µM)

Cc1nn(-c2ccccc2)c(Cl)c1/C=C(\Br)C(=O)C1C(=O)N(C)C(=O)N(C)C1=O
MIC (Staphylococcus aureus [23]): 25 µg/mL (≈ 52.1 µM)

Fc1ccc(-c2nn(-c3ccccc3)cc2-c2nc3ccccn3c2Cc2ccccc2)cc1
MIC (Escherichia coli): < 1 µg/mL
MIC [5]: < 1 µg/mL
MIC (Klebsiella pneumoniae): < 1 µg/mL
MIC (Pseudomonas aeruginosa): < 1 µg/mL
MIC (Staphylococcus aureus [6]): 2.5 µg/mL (≈ 5.62 µM)

CC(=O)NC[C@H]1CN(c2ccc(N3CCOCC3)c(F)c2)C(=O)O1 [LINEZOLID]
MIC (Staphylococcus aureus [28]): 2.6 µM
MIC (Staphylococcus aureus [28]; Staphylococcus aureus, ATCC 33591, read-out: MIC): 5.2 µM
MBC (Staphylococcus aureus [29]): 46.2 µM
MIC (Staphylococcus aureus [29]): 2.6 µM
MBC (Staphylococcus aureus [30]): 46.2 µM (≈ 15.6 µg/mL)
MBC (Staphylococcus aureus [31]): 46.2 µM (≈ 15.6 µg/mL)

CCCc1c(-c2ccc(O)cc2)nn(-c2ccc(O)cc2)c1-c1ccc(O)cc1 [PROPYLPYRAZOLETRIOL]
MIC (Staphylococcus aureus [32]): 8 µg/mL (≈ 20.7 µM)
MIC (Staphylococcus aureus [33]): 8 µg/mL (≈ 20.7 µM)

Cc1nn(-c2ccc(Cl)cc2Cl)c(Oc2ccc(Cl)cc2Cl)c1C1N=C(N)NC(NCCc2ccccc2)=N1 (centres undefined)
MIC (Staphylococcus aureus [34]): 0.5 µg/mL (≈ 0.829 µM)
inhibition [35]: 43%

CC(=O)c1nn(-c2ccc([N+](=O)[O-])cc2)cc1C(=O)c1cc2cc(CN3CCN(Cc4ccc5oc(C(=O)c6cn(-c7ccc([N+](=O)[O-])cc7)nc6C(C)=O)cc5c4)CC3)ccc2o1
MIC (Staphylococcus aureus [28]): 18.1 µM and 9 µM
MBC (Staphylococcus aureus [29]): 36.2 µM
MIC (Staphylococcus aureus [29]): 9 µM
MBC (Staphylococcus aureus [30]): 36.2 µM (≈ 31.2 µg/mL)
MBC (Staphylococcus aureus [31]): 18.1 µM (≈ 15.6 µg/mL)

COc1ccc(Nc2n[nH]c(/N=C\c3ccccc3)c2C(=O)Nc2ccc(C)cc2)cc1
MIC (Staphylococcus aureus [36]): 15.6 µg/mL (≈ 36.7 µM)

COc1c(N2C[C@@H]3CCCN[C@@H]3C2)c(F)cc2c(=O)c(C(=O)O)cn(C3CC3)c12 [MOXIFLOXACIN]
MIC (Staphylococcus aureus [34]): 1 µg/mL (≈ 2.49 µM)
MIC (Staphylococcus aureus [3]): 0.06 µg/mL (≈ 0.149 µM)

O=C(O)c1ccc(-n2cc(/C=N/N(c3ccccc3)c3ccccc3)c(-c3cc4ccccc4oc3=O)n2)cc1
MIC (Staphylococcus aureus [37]): 3.12 µg/mL (≈ 5.93 µM)
